Experimental data reported in paper PMC11676775, “Novel Copper(II) Coordination Compounds Containing Pyridine Derivatives of N^4-Methoxyphenyl-Thiosemicarbazones with Selective Anticancer Activity” (Molecules, 2024).
Where two headings read alike, the source gives them in different places.

Key:
MDCK normal cell line = test: Cell proliferation resazurin assay, MDCK normal cell line; assay type: cell-based, canine; conditions: 24 h incubation
Protocol: (§1) The proliferation of HeLa, BxPC-3, RD, and MDCK cells was assessed using resazurin. Triplicate cultures of 1 × 10^4 cells in 100 μL of medium were incubated at 37 °C, 3% CO2, in 96-well plates. Compounds were dissolved in DMSO to form 1 × 10⁻^2 M solutions, then diluted with media and added to wells for a 24 h incubation. Following this, 20 μL of resazurin solution was added and incubated for 4 h. Absorbance was measured at 570 nm and 600 nm.
(§2) Percentage inhibition was calculated as follows:(2) I (%)=100−Abs570 nmsample−Abs600 nmsample /[…]−Abs600 nmcontrol ×100
(§3) The formula accounts for absorbance differences at 570 nm and 600 nm to determine cell viability.
(§4) The half maximal inhibitory concentration (IC50) indicated the effectiveness of the compounds on cell lines, as defined by FDA guidelines as the concentration needed for 50% inhibition in vitro. Toxicity was assessed via the median lethal concentration (LC50), the concentration causing death in 50% of juvenile daphnids, calculated using a dose–response equation via least squares fitting. All data are presented as mean ± standard deviation (SD). Statistical analyses were conducted with specialized software.

BxPC-3 cancer cell line = test: Cell proliferation resazurin assay, BxPC-3; assay type: cell-based, human; conditions: BxPC-3, 24 h incubation
Protocol: as §1, §2, §3, §4

RD cancer cell line = test: Cell proliferation resazurin assay, RD; assay type: cell-based, human; conditions: 24 h incubation
Protocol: as §1, §2, §3, §4

HeLa cancer cell line = test: Cell proliferation resazurin assay, HeLa; assay type: cell-based, human; conditions: 24 h incubation
Protocol: as §1, §2, §3, §4

HL-60 cancer cell line = test: Antiproliferative activity, HL-60; assay type: cell-based, human
LNCaP cancer cell line = test: Cell proliferation MTT assay, LNCaP; assay type: cell-based, human; conditions: 24 h incubation
Protocol: (§5) The MTT assay, a colorimetric method, quantifies viable cells to evaluate cytotoxic effects on LNCaP, MCF-7, HepG-2, and K-562 cell lines. It measures the conversion of MTT to insoluble formazan by mitochondrial succinate dehydrogenase in active cells, reflecting cell viability. Compounds were dissolved in saline and DMSO (≤0.1%) and tested at 0.1, 1, and 10 μM concentrations, following Mosmann’s method.
(§6) Suspension cells were centrifuged, and adherent cells were trypsinized then diluted to 5 × 10⁴ cells/mL in RPMI 1640 with 10% fetal bovine serum. Subsequently, 5 × 10^3 cells in 100 μL were plated in 96-well plates and incubated for attachment. After adding compounds, cells were incubated for 24 h at 37 °C and 3% CO2. MTT reagent was introduced, and cells were monitored for formazan presence under a microscope.
(§7) Upon observing purple precipitate, detergent reagent was added, and plates were kept in the dark for 4 h. Absorbance was measured at 540 nm using a BioTek reader (Agilent, Santa Clara, CA, USA). Results, indicating percent inhibition, were calculated using the following formula:(3) I (%)=100−Abs540 nmsample /Abs540 nmcontrol ×100
(§8) IC50 values were determined as a measure of compound efficacy on cancer cell proliferation.

MCF-7 cancer cell line = test: Cell proliferation MTT assay, MCF-7; assay type: cell-based, human
Protocol: as §5, §6, §7, §8

HepG-2 cancer cell line = test: Cell proliferation MTT assay, HepG-2; assay type: cell-based, human
Protocol: as §5, §6, §7, §8

K-562 cancer cell line = test: Cell proliferation MTT assay, K-562; assay type: cell-based, human
Protocol: as §5, §6, §7, §8

Daphnia magna = test: in vivo; conditions: pH 7
Protocol: Toxicity testing for certain substances was conducted using Daphnia magna, following ISO 6341:2012 guidelines. Daphnia magna were cultured parthenogenetically at the Institute of Zoology and fed Chlorella vulgaris grown aseptically. The algal medium included CaCl2, NaHCO3, KCl, and MgSO4·7H2O, with pH adjusted to 7.0 and O2 ≥ 6.00 mg/L. Juvenile daphnids were cultured in 24-well plates, each holding 10 daphnids in 1000 μL of each compound dilution. The bioassay tested concentrations from 0.1 to 100 μM to determine LC50, using doxorubicin as the positive control and a 0.1% DMSO solution as the negative control. The daphnids were incubated at 22 ± 2 °C with a 16 h/8 h light/dark cycle.
The experiment was conducted in triplicate to ensure accuracy.
as §4

[1] = tested on: HeLa, RD, and BxPC-3 cancer cell lines; test: Antiproliferative activity, summary over HeLa, RD and BxPC-3 cell lines; assay type: cell-based; conditions: Homo sapiens; range over the three cancer cell lines; read-out: IC50 range against HeLa, RD, and BxPC-3 cell lines
Protocol: as §1, §2, §3, §4

[2] = Homo sapiens, MCF7, MCF-7, 24 h incubation
[3] = Homo sapiens, HepG2, HepG-2, 24 h incubation
[4] = Homo sapiens, K562, K-562, 24 h incubation
[5] = other: immersion in compound dilution

| Structure (SMILES) | IC50 (MDCK normal cell line) [µM] | IC50 (BxPC-3 cancer cell line) [µM] | IC50 (RD cancer cell line) [µM] | IC50 (HeLa cancer cell line) [µM] | IC50 (MDCK normal cell line; Canis lupus familiaris) [µM] | IC50 (BxPC-3 cancer cell line; Homo sapiens) [µM] | IC50 (RD cancer cell line; Homo sapiens) [µM] | IC50 (HeLa cancer cell line; Homo sapiens) [µM] | IC50 (HL-60 cancer cell line; Homo sapiens) [µM] | IC50 (LNCaP cancer cell line; Homo sapiens) [µM] | IC50 (MCF-7 cancer cell line; [2]) [µM] | IC50 (HepG-2 cancer cell line; [3]) [µM] | IC50 (K-562 cancer cell line; [4]) [µM] | LC50 at 24 h (Daphnia magna; [5]) [µM] | other results |
| --- | --- | --- | --- | --- | --- | --- | --- | --- | --- | --- | --- | --- | --- | --- | --- |
| COc1ccc(NC(=NN=Cc2ccccn2)[S][Cu][O][N+](=O)[O-])cc1 [C6, [Cu(L^3)NO3]] | 2.1 ± 1.5 | 0.1 ± 0.04 | 1.2 ± 0.03 | 1.1 ± 0.05 | – | – | – | – | – | – | – | – | – | – | IC50 (HL-60 cancer cell line): 0.03 ± 0.006 µM; IC50 (LNCaP cancer cell line): 0.3 ± 0.04 µM; IC50 (MCF-7 cancer cell line; MCF-7, 24 h incubation): 0.6 ± 0.03 µM; IC50 (HepG-2 cancer cell line; HepG-2, 24 h incubation): 0.6 ± 0.03 µM; IC50 (K-562 cancer cell line; K-562, 24 h incubation): 0.03 ± 0.002 µM |
| COc1cccc(NC(=S)N/N=C(/c2ccccc2)c2ccccn2)c1 [HL^5, N-(3-Methoxyphenyl)-2-[phenyl (pyridin-2-yl)methylidene] hydrazine-1-carbothioamide] | – | – | – | – | 100 ± 3.8 | 3.2 ± 0.3 | 0.5 ± 0.06 | 100 ± 4.2 | 0.02 ± 0.006 | 8.1 ± 1.2 | 5.2 ± 0.6 | 0.3 ± 0.01 | 0.1 ± 0.01 | 45 | IC50 [1]: 0.5 to 100 µM |
| COc1ccccc1NC(=S)N/N=C/c1ccccn1 [HL^1, N-(2-Methoxyphenyl)-2-[(pyridin-2-yl)methylidene] hydrazine-1-carbothioamide] | – | – | – | – | 10.1 ± 1.2 | 0.1 ± 0.05 | 100 ± 4.2 | 81.2 ± 5.3 | 0.04 ± 0.006 | 100 ± 4.9 | 10 ± 1.2 | 0.8 ± 0.04 | 10 ± 1.2 | 15 | – |
| [NH2][Pt]([NH2])([Cl])[Cl] [CDDP, cisplatin, reference compound] | 1.5 ± 0.3 | 11.2 ± 1.3 | 4.6 ± 0.6 | 30.9 ± 1.2 | – | – | – | – | – | – | – | – | – | – | – |
| COc1cccc(NC(=S)N/N=C(\C)c2ccccn2)c1 [HL^4, N-(3-Methoxyphenyl)-2-[1-(pyridin-2-yl)ethylidene] hydrazine-1-carbothioamide] | – | – | – | – | 14.9 ± 1.6 | 0.1 ± 0.03 | 11.6 ± 0.5 | 5.8 ± 1.2 | 0.06 ± 0.004 | 100 ± 3.1 | 55 ± 2.1 | 3.1 ± 0.3 | 16 ± 2.2 | 14 | IC50 [1]: 0.1 to 11 µM |
| COc1ccccc1NC(=NN=Cc1ccccn1)[S][Cu][Cl] [C1, [Cu(L^1)Cl]] | 0.3 ± 0.02 | 0.1 ± 0.02 | 0.1 ± 0.01 | 0.8 ± 0.04 | – | – | – | – | – | – | – | – | – | – | IC50 (HL-60 cancer cell line): 35 ± 2.1 µM; IC50 (LNCaP cancer cell line): 45 ± 2.1 µM; IC50 (MCF-7 cancer cell line; MCF-7, 24 h incubation): 100 ± 4.2 µM; IC50 (HepG-2 cancer cell line; HepG-2, 24 h incubation): 68 ± 4.2 µM; IC50 (K-562 cancer cell line; K-562, 24 h incubation): 64 ± 1.4 µM |
| COc1cccc2c1C(=O)c1c(O)c3c(c(O)c1C2=O)C[C@@](O)(C(=O)CO)C[C@@H]3O[C@H]1C[C@H](N)[C@H](O)[C@H](C)O1 [DOXO, doxorubicin, reference compound] | – | – | – | – | 10.8 ± 1.2 | 6 ± 0.1 | 16.2 ± 1.4 | 6.2 ± 0.5 | 1 ± 0.3 | 1.1 ± 0.02 | 14 ± 1.5 | 2.8 ± 1.1 | 0.4 ± 0.03 | – | LC50 at 24 h (Daphnia magna): 3.6 µM |
| COc1cccc(NC(=S)N/N=C/c2ccccn2)c1 [HL^2, N-(3-Methoxyphenyl)-2-[(pyridin-2-yl)methylidene] hydrazine-1-carbothioamide] | – | – | – | – | 0.4 ± 0.06 | 0.1 ± 0.04 | 0.2 ± 0.03 | 0.1 ± 0.01 | 0.01 ± 0.004 | 0.9 ± 0.05 | 3.5 ± 0.5 | 0.6 ± 0.06 | 0.9 ± 0.05 | 13 | IC50 [1]: 0.1 to 0.2 µM |
| COc1ccc(NC(=NN=Cc2ccccn2)[S][Cu][Cl])cc1 [C5, [Cu(L^3)Cl]] | 26.6 ± 2.4 | 9.4 ± 1.2 | 19.7 ± 2.4 | 26.1 ± 1.2 | – | – | – | – | – | – | – | – | – | – | – |
| COc1cccc(NC(=NN=Cc2ccccn2)[S][Cu][O][N+](=O)[O-])c1 [C4, [Cu(L^2)NO3]] | 1.3 ± 0.4 | 0.1 ± 0.05 | 0.1 ± 0.06 | 0.1 ± 0.01 | – | – | – | – | – | – | – | – | – | – | – |
| COc1ccccc1NC(=NN=Cc1ccccn1)[S][Cu][O][N+](=O)[O-] [C2, [Cu(L^1)NO3]] | 0.6 ± 0.03 | 0.1 ± 0.01 | 0.1 ± 0.01 | 0.8 ± 0.03 | – | – | – | – | – | – | – | – | – | – | IC50 (HL-60 cancer cell line): 0.03 ± 0.001 µM; IC50 (LNCaP cancer cell line): 0.8 ± 0.03 µM; IC50 (MCF-7 cancer cell line; MCF-7, 24 h incubation): 0.1 ± 0.05 µM; IC50 (HepG-2 cancer cell line; HepG-2, 24 h incubation): 0.4 ± 0.05 µM; IC50 (K-562 cancer cell line; K-562, 24 h incubation): 0.5 ± 0.01 µM |
| COc1cccc(NC(=NN=C(C)c2ccccn2)[S][Cu][Cl])c1 [C8, [Cu(L^4)Cl]] | 1.1 ± 0.06 | 0.1 ± 0.07 | 0.2 ± 0.04 | 0.1 ± 0.03 | – | – | – | – | – | – | – | – | – | – | – |
| COc1cccc(NC(=NN=C(C)c2ccccn2)[S][Cu][O][N+](=O)[O-])c1 [C7, [Cu(L^4)NO3]] | 0.9 ± 0.04 | 0.2 ± 0.05 | 0.5 ± 0.06 | 0.1 ± 0.04 | – | – | – | – | – | – | – | – | – | – | – |
| COc1ccc(NC(=S)N/N=C/c2ccccn2)cc1 [HL^3, N-(4-Methoxyphenyl)-2-[(pyridin-2-yl)methylidene] hydrazine-1-carbothioamide] | – | – | – | – | 100 ± 4.6 | 2.1 ± 0.2 | 0.5 ± 0.04 | 100 ± 5.9 | 0.01 ± 0.001 | 100 ± 4.2 | 100 ± 4.6 | 52 ± 0.01 | 10 ± 1.6 | 35 | IC50 [1]: 0.5 to 100 µM |
